“And” between values parts separate entries of the source, which are not always exact repeats. Identical values can stand only once.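 48-hour exposure; five concentrations; linearly interpolated endpoints. GI50 = concentration required for 50% inhibition of growth. The concentration for full growth arrest is given as TGI.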
Columns and labels:
Assay in all cases: NCI-60 cell line screen, 48 h
ACHN renal = system: ACHN renal
EKVX NSCLC = system: EKVX NSCLC
HCC-2998 colon = system: HCC-2998 colon
M14 melanoma = system: M14 melanoma
RPMI-8226 leukemia = system: RPMI-8226 leukemia
RXF 393 renal = system: RXF 393 renal
SR leukemia = system: SR leukemia
TK-10 renal = system: TK-10 renal
MDA-N = system: MDA-N

| Compound | GI50 (ACHN renal) | TGI (ACHN renal) [µM] | GI50 (EKVX NSCLC) | TGI (EKVX NSCLC) | GI50 (HCC-2998 colon) | TGI (HCC-2998 colon) | GI50 (M14 melanoma) | TGI (M14 melanoma) | GI50 (RPMI-8226 leukemia) | TGI (RPMI-8226 leukemia) | GI50 (RXF 393 renal) | TGI (RXF 393 renal) | GI50 (SR leukemia) | TGI (SR leukemia) | GI50 (TK-10 renal) | TGI (TK-10 renal) | TGI (MDA-N) [µM] | GI50 (MDA-N) [µM] |
| --- | --- | --- | --- | --- | --- | --- | --- | --- | --- | --- | --- | --- | --- | --- | --- | --- | --- | --- |
| CC1SC(c2ccccc2Cl)N(NC(=O)C(O)c2ccccc2)C1=O (stereo unspecified) | 55.8 µM | > 100 | > 100 µM | > 100 µM | > 100 µM | > 100 µM | 94.3 µM | > 100 µM | 45 µM | > 100 µM | > 100 µM | > 100 µM | 40 µM | > 100 µM | 31 µM | > 100 µM |  |  |
| [N-]=[N+]=NCN1C(=O)C2C3C=CC(C2C1=O)C1C2C(=O)N(CN=[N+]=[N-])C(=O)C2C31 (stereo unspecified) |  | > 100 |  | > 100 µM |  | 69.8 µM |  | > 100 µM |  | > 100 µM |  |  |  |  |  | > 100 µM | > 100 |  |
| O=c1cc(-c2ccc(F)cc2)[nH]c2ncccc12 |  | > 100 |  | > 100 µM |  | > 100 µM |  | > 100 µM |  | > 100 µM |  |  |  |  |  | > 100 µM | 35.9 | 14.1 |
| Cc1cc2c(F)c(Oc3ncnc(Nc4ccc(N5C[C@@H](C)N[C@@H](C)C5)cc4)c3C#N)cc(F)c2[nH]1 | 2.05 µM | 4.21 | 3.39 µM | 14.7 µM | 1.97 µM | 4.14 µM | 1.87 µM | 3.59 µM | 1.72 µM | 4.33 µM | 0.641 µM | 2.44 µM | 1.63 µM | 4.35 µM | 2.65 µM | 6.31 µM |  |  |
| O=C(O)c1cccc(S(=O)(=O)NCCO)c1 |  | > 100 |  | > 100 µM |  |  |  | > 100 µM |  | > 100 µM |  | > 100 µM |  | > 100 µM |  | > 100 µM | > 100 |  |
| Cc1c(CN2CCN(C(=O)[C@H](C)O)CC2)sc2c(N3CCOCC3)nc(-c3cnc(N)nc3)nc12 | 0.203 µM and 0.145 µM |  | 0.121 µM and 0.21 µM | 2.26 µM and 2.34 µM | 0.552 µM and 0.242 µM | 9.79 µM and 13.1 µM | 0.326 µM and 0.0936 µM | > 9.28 µM and 1.44 µM | 0.267 µM and 0.206 µM | > 8.66 µM and 11.8 µM | 0.0603 µM and 0.119 µM | 0.443 µM and 0.543 µM | 0.365 µM and 0.262 µM | > 10 µM and 3.88 µM | 0.191 µM and 0.131 µM | 3.51 µM and 0.825 µM |  |  |
| O=C1Nc2c(Cl)cc(Cl)cc2/C1=N/N=C/c1ccco1 |  | > 100 |  | 84.9 µM |  | > 100 µM |  | > 100 µM |  |  |  | > 100 µM |  | > 100 µM |  | > 100 µM | 55.3 |  |
| COc1cnc2c(c1)C(=O)c1c-2n(CCCN2CCCC2)c(=O)c2cc([N+](=O)[O-])ccc12 | < 0.01 µM | 0.132 | 0.297 µM | 12.3 µM | 0.157 µM | 2.53 µM | < 0.01 µM | 1.01 µM | 0.0374 µM | 1.11 µM | 0.0611 µM | 0.533 µM | < 0.01 µM | 1.34 µM | 0.373 µM | 14.1 µM |  |  |
| COc1cc(-n2ccnc2-c2ccc3ccccc3c2)cc(OC)c1OC | 2.6 µM | 49 | 0.481 µM | > 72.4 µM | < 0.0318 µM | 0.199 µM | 0.0376 µM | 1.02 µM | 0.292 µM | 20.6 µM | 0.17 µM | 0.749 µM | < 0.0188 µM | > 43.4 µM | 0.936 µM | 45.2 µM |  |  |
| C(=N\Nc1ncc(-c2cc3cc4c(cc3o2)OCO4)s1)/c1ccco1 | 1.85 µM | 11.3 | 2.25 µM | 10.9 µM | 3.52 µM | 12.9 µM | 2.9 µM | 11.6 µM | 3.08 µM | 13.3 µM | 1.8 µM | 5.13 µM | 1.29 µM | 25.3 µM | 3.38 µM | 24.7 µM |  |  |
| COC[C@H](NC(=O)c1cnc(C)s1)C(=O)N[C@@H](COC)C(=O)N[C@@H](Cc1ccccc1)C(=O)[C@@]1(C)CO1 | 34.8 µM | > 100 | 44.4 µM | > 100 µM | 18.2 µM | 37.6 µM | 24.3 µM | > 69.8 µM | 18.5 µM | > 100 µM | 15.5 µM | 33.9 µM | > 61.4 µM | > 100 µM | 27.3 µM | > 72.2 µM |  |  |
| O=C1c2ccccc2C(=O)N1CCc1ncc(-c2ccccc2)[nH]1 |  | > 100 |  | > 100 µM |  | > 100 µM |  | > 100 µM |  |  |  |  |  | > 100 µM |  | > 100 µM | > 100 |  |
| NCCCCC(NC(=O)C(N)CCCN=C(N)N)C(=O)NC(CCCCN)C(=O)NC(CCCN=C(N)N)C(=O)NC(CCCN=C(N)N)C(=O)NC(CCC(N)=O)C(=O)NC(CCCN=C(N)N)C(=O)NC(CCCN=C(N)N)C(=O)NC(CCCN=C(N)N)C(=O)NCC(=O)NCC(=O)O (stereo unspecified) | > 50 µM | > 50 | > 50 µM | > 50 µM | > 50 µM | > 50 µM | > 50 µM | > 50 µM | > 50 µM | > 50 µM | > 50 µM | > 50 µM | > 50 µM | > 50 µM | > 50 µM | > 50 µM |  |  |
| CCOC(=O)c1ccc(-n2cnc(-c3ccc([N+](=O)[O-])cc3)c2)cc1 |  | > 100 |  | > 100 µM |  | > 100 µM |  | > 100 µM |  | > 100 µM |  |  |  | > 100 µM |  | > 100 µM | > 100 |  |
| COc1cc2nc(N3CCCN(C)CC3)nc(NC3CCN(Cc4ccccc4)CC3)c2cc1OC | 2.25 µM | 5.13 | 3.83 µM | 13.9 µM | 2.71 µM | 8.76 µM | 1.76 µM | 3.22 µM | 2.31 µM | 6.18 µM | 1.33 µM | 3.12 µM | 2.23 µM | 6.66 µM | 1.88 µM | 4.02 µM |  |  |
| COc1cc(CCC[P+](c2ccccc2)(c2ccccc2)c2ccccc2)c(OC)c2c1OCO2 | 4.07 µM | 21 | 2.83 µM | 35.2 µM | 2.21 µM | 13.3 µM | 1.8 µM | 13.7 µM | 0.283 µM | 1.87 µM | 2.01 µM | 8.43 µM | 1.1 µM | 13.3 µM | 4.05 µM | 23.3 µM |  |  |
| COc1ccc(-c2ncnc3c2ncn3CC#CCCl)cc1 | 3.62 µM | 14.8 | 12.8 µM | 29.6 µM | 17.6 µM | 31.8 µM | 4.55 µM | 17.4 µM | 3.46 µM | 20 µM | 2.29 µM | 5.94 µM | 5.24 µM | > 100 µM | 7.29 µM | 24 µM |  |  |

Reference: PubChem BioAssay (NCI)
